Measurements reported in patent publication US9809574B2, “Isoindoline or isoquinoline compounds, a process for their preparation and pharmaceutical compositions containing them” (LES LABORATOIRES SERVIER, priority 2013, dated 2017).
Like-named read-outs stand apart in the source and are kept apart here.

Assays:
[1] = system: RS4; 11 leukaemia cell line; test: In vitro cytotoxicity, Microculture Tetrazolium Assay (MTT); assay type: cell-based; settings: 11 cells exposed for 48 hours
Procedure: The cytotoxicity studies were carried out on the RS4; 11 leukaemia cell line and on H146 small Cell Lung Carcinoma cell line. The cells are distributed onto microplates and exposed to the test compounds for 48 hours. The cell viability is then quantified by a colorimetric assay, the Microculture Tetrazolium Assay (Cancer Res., 1987, 47, 939-942).

Bcl-2 protein = Bcl-2 protein (histag-Bcl-2, UniProtKB P10415) (Homo sapiens (Human), UniProt P10415); test: Inhibition of Bcl-2 by the fluorescence polarisation technique; assay type: binding
Description: For partial inhibitors, the percentage fluorescence polarisation inhibition for a given concentration of the test compound is indicated.

[2] = fluorescence polarisation test, incubation for 2 hours, read-out: IC50 (nM) Bcl-2 FP

Chain of Bcl-2 protein (P10415 whole entry): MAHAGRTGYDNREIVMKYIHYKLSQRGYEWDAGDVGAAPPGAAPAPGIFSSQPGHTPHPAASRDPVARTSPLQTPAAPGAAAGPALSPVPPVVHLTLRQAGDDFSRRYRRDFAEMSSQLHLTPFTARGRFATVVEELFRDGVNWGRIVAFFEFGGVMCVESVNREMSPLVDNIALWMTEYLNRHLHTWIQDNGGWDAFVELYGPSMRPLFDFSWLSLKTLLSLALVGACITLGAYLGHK

Row | SMILES | IC50 ([1]; Homo sapiens) | IC50 (Bcl-2 protein; [2]) | IC50 (Bcl-2 protein) | IC50 [1]
1 | Cc1c(C(=O)N(C)c2ccc(O)cc2)cc(-c2cc3c(cc2C(=O)N2Cc4ccccc4C[C@H]2C)CN(C(=O)Nc2ccccc2)CC3)n1C [Example 253, 6-{4-[(4-Hydroxyphenyl)(methyl)carbamoyl]-1,5-dimethyl-1H-pyrrol-2-yl}-7-[(3R)-3-methyl-1,2,3,4-tetrahydroisoquinoline-2-carbonyl]-N-phenyl-1,2,3,4-tetrahydroisoquinoline-2-carboxamide] | 22 nM | 5.2 nM |  | 
2 | Cc1c(C(=O)N(C)c2ccc(O)cc2)cc(-c2cc3c(cc2C(=O)N2Cc4ccccc4C[C@H]2C)CN(C(=O)Cc2ccccc2)C3)n1C [Example 80, N-(4-Hydroxyphenyl)-N,1,2-trimethyl-5-{6-[(3R)-3-methyl-1,2,3,4-tetrahydroisoquinoline-2-carbonyl]-2-(2-phenylacetyl)-2,3-dihydro-1H-isoindol-5-yl}-1H-pyrrole-3-carboxamide] | 71 nM | 5.5 nM |  | 
3 | Cc1c(C(=O)N(C)c2ccc(O)cc2)cc(-c2cc3c(cc2C(=O)N2Cc4ccccc4C[C@H]2CN2CCOCC2)CN(C(=O)Oc2cnc4[nH]ccc4c2)CC3)n1C [Example 579, 1H-Pyrrolo[2,3-b]pyridin-5-yl 6-{4-[(4-hydroxyphenyl)(methyl)carbamoyl]-1,5-dimethyl-1H-pyrrol-2-yl}-7-[(3S)-3-(morpholin-4-ylmethyl)-1,2,3,4-tetrahydroisoquinoline-2-carbonyl]-1,2,3,4-tetrahydroisoquinoline-2-carboxylate] | 17 nM |  | 4.4 nM | 
4 | C[C@@H]1Cc2ccccc2CN1C(=O)c1cc2c(cc1-c1cc(C(=O)N(C)c3ccc(O)cc3)c3n1CCCC3)CN(C(=O)Cc1ccc(OC(F)(F)F)cc1)C2 [Example 26, N-(4-Hydroxyphenyl)-N-methyl-3-{6-[(3R)-3-methyl-1,2,3,4-tetrahydroisoquinoline-2-carbonyl]-2-{2-[4-(trifluoromethoxy)phenyl]acetyl}-2,3-dihydro-1H-isoindol-5-yl}-5,6,7,8-tetrahydroindolizine-1-carboxamide] | 86 nM | 30 nM |  | 
5 | Cc1c(C(=O)N(C)c2ccccc2)cc(-c2cc3c(cc2C(=O)N2Cc4ccccc4C[C@H]2CN2CCOCC2)CN(C(=O)Oc2cnc4c(ccn4C)c2)CC3)n1C [Example 634, 1-Methyl-1H-pyrrolo[2,3-b]pyridin-5-yl 6-{1,5-dimethyl-4-[methyl(phenyl)carbamoyl]-1H-pyrrol-2-yl}-7-[(3S)-3-(morpholin-4-ylmethyl)-1,2,3,4-tetrahydroisoquinoline-2-carbonyl]-1,2,3,4-tetrahydroisoquinoline-2-carboxylate] | 21 nM | 6.9 nM |  | 
6 | Cc1c(C(=O)N(C)c2ccc(O)cc2)cc(-c2cc3c(cc2C(=O)N2Cc4ccccc4C[C@H]2CCCN2CCOCC2)CN(C(=O)OC2CCCCC2)CC3)n1C [Example 809, Cyclohexyl 6-{4-[(4-hydroxyphenyl)(methyl)carbamoyl]-1,5-dimethyl-1H-pyrrol-2-yl}-7-[(3R)-3-[3-(morpholin-4-yl)propyl]-1,2,3,4-tetrahydroisoquinoline-2-carbonyl]-1,2,3,4-tetrahydroisoquinoline-2-carboxylate] | 9.8 nM | 3.1 nM |  | 
7 | C[C@@H]1Cc2ccccc2CN1C(=O)c1cc2c(cc1-c1cc(C(=O)N(c3ccccc3)c3ccc(O)cc3)c3n1CCCC3)CNC2 [Example 44, N-(4-Hydroxyphenyl)-3-{6-[(3R)-3-methyl-1,2,3,4-tetrahydroisoquinoline-2-carbonyl]-2,3-dihydro-1H-isoindol-5-yl}-N-phenyl-5,6,7,8-tetrahydroindolizine-1-carboxamide] | 443 nM | 13 nM |  | 
8 | CN(C(=O)c1cc(-c2cc3c(cc2C(=O)N2Cc4ccccc4C[C@H]2CN2CCOCC2)CN(C(=O)OCc2ccccc2)CC3)n2c1CCCC2)c1ccc(O)cc1 [Example 94, Benzyl 6-{1-[(4-hydroxyphenyl)(methyl)carbamoyl]-5,6,7,8-tetrahydroindolizin-3-yl}-7-[(3S)-3-(morpholin-4-ylmethyl)-1,2,3,4-tetrahydroisoquinoline-2-carbonyl]-1,2,3,4-tetrahydroisoquinoline-2-carboxylate] | 19 nM | 5.6 nM |  | 
9 | CCCCN(CCCC)C(=O)c1cc(-c2cc3c(cc2C(=O)N2CCc4ccccc4C2)CN(C(=O)Cc2ccccc2)CC3)n(C)c1C [Example 162, N,N-Dibutyl-1,2-dimethyl-5-[2-(2-phenylacetyl)-7-(1,2,3,4-tetrahydroisoquinoline-2-carbonyl)-1,2,3,4-tetrahydroisoquinolin-6-yl]-1H-pyrrole-3-carboxamide] | > 150 nM | 33 nM |  | 
10 | CC(Cc1ccccc1)C(=O)N1Cc2cc(C(=O)N3Cc4ccccc4C[C@H]3C)c(-c3cc(C(=O)N(C)c4ccc(O)cc4)c4n3CCCC4)cc2C1 (stereo partly drawn) [Example 23, 3-[2-(2-Benzylpropanoyl)-6-[(3R)-3-methyl-1,2,3,4-tetrahydroisoquinoline-2-carbonyl]-2,3-dihydro-1H-isoindol-5-yl]-N-(4-hydroxyphenyl)-N-methyl-5,6,7,8-tetrahydroindolizine-1-carboxamide] | 61 nM | 13 nM |  | 
11 | Cc1c(C(=O)N(C)c2ccc(O)cc2)cc(-c2cc3c(cc2C(=O)N2Cc4ccccc4C[C@H]2C)CN(C(=O)OC2CCC(NC(=O)OC(C)(C)C)CC2)CC3)n1C (stereo partly drawn) [Example 800, (1r,4r)-4-{[(tert-Butoxy)carbonyl]amino}cyclohexyl 6-{4-[(4-hydroxyphenyl)(methyl)carbamoyl]-1,5-dimethyl-1H-pyrrol-2-yl}-7-[(3R)-3-methyl-1,2,3,4-tetrahydroisoquinoline-2-carbonyl]-1,2,3,4-tetrahydroisoquinoline-2-carboxylate] |  | 2 nM |  | 3.2 nM
12 | Cc1c(C(=O)N(C)c2ccccc2)cc(-c2cc3c(cc2C(=O)N2Cc4ccccc4C[C@H]2C)CN(C(=O)Oc2ccc(C#N)cc2)CC3)n1C [Example 786, 4-Cyanophenyl 6-{1,5-dimethyl-4-[methyl(phenyl)carbamoyl]-1H-pyrrol-2-yl}-7-[(3R)-3-methyl-1,2,3,4-tetrahydroisoquinoline-2-carbonyl]-1,2,3,4-tetrahydroisoquinoline-2-carboxylate] | 24 nM | 8.4 nM |  | 
13 | CCCCN(CCCC)C(=O)c1cc(-c2cc3c(cc2C(=O)N2Cc4ccccc4C[C@H]2C)CN(C(=O)Cc2ccccc2)CC3)n(C)c1C [Example 164, N,N-Dibutyl-1,2-dimethyl-5-{7-[(3R)-3-methyl-1,2,3,4-tetrahydroisoquinoline-2-carbonyl]-2-(2-phenylacetyl)-1,2,3,4-tetrahydroisoquinolin-6-yl}-1H-pyrrole-3-carboxamide] | > 150 nM | 14 nM |  | 
14 | Cc1c(C(=O)N(C)c2ccccc2)cc(-c2cc3c(cc2C(=O)N2Cc4ccccc4C[C@H]2CCCN2CCOCC2)CN(C(=O)OC2CCCCC2)CC3)n1C [Example 811, Cyclohexyl 6-{1,5-dimethyl-4-[methyl(phenyl)carbamoyl]-1H-pyrrol-2-yl}-7-[(3R)-3-[3-(morpholin-4-yl)propyl]-1,2,3,4-tetrahydroisoquinoline-2-carbonyl]-1,2,3,4-tetrahydroisoquinoline-2-carboxylate] | 94 nM | 3.8 nM |  | 
